Assay results reported in patent publication US20230381170A1, “METHOD FOR TREATING ALS/FTD THROUGH DEGRADATION OF RNA REPEAT EXPANSION” (University of Florida Research Foundation, Incorporated, priority 2020, published 2023).

Experiments:
r(G4C2)8 = experiment: In vitro Chem-CLIP and C-Chem-CLIP; type: binding; conditions: constant 4 (500 nM), increasing concentrations of competitor
Method: In vitro Chemical Cross-linking and Isolation by Pull-Down (Chem-CLIP) and Competitive Chemical Cross-linking and Isolation by Pull-Down (C-Chem-CLIP): Approximately 10,000 counts of ^32P 5′-end labeled r(G4C2)8 was folded in 1×Folding Buffer at 95° C. for 1 min. After cooling to room temperature, the Chem-CLIP probe at the desired concentrations (5, 10, 100, 500, 1000, 5000, 10000 nM) was added, and the samples were incubated at 37° C. for 18 h. For C-Chem-CLIP studies, the parent compound (10, 100, 500, 1000, 5000, 10000 nM) was incubated with RNA for 1 h before addition of the Chem-CLIP probe (500 nM).
Cross-linked RNAs were clicked to biotin […] azide (10 μL of a 5 mM stock solution in DMSO) by incubating in a solution containing 25 mM HEPES (pH 7.1), 250 mM sodium ascorbate, 10 mM CuSO4, and 50 mM THPTA (tris-hydroxypropyltriazolylmethylamine) for 6 h at 37° C. A 300 μL of streptavidin-agarose beads (Sigma-Aldrich) was washed three times and then resuspended in 1×PBS. An aliquot (20 μL) of the slurry was added to each sample, which was incubated for 1 h at room temperature. The samples were centrifuged and the supernatant containing unbound RNA was transferred to an unused tube. The beads were then washed three times with 1×PBS supplemented with 0.10% (v/v) Tween-20 and centrifuged, with each wash supernatant being added to the tube containing unbound RNA. The amounts of radioactivity in the supernatant and associated with the beads were quantified with a Beckman Coulter LS6500 Liquid Scintillation Counter.

[1] = test system: r(G4C2)exp-containing nuclear foci; experiment: RNA foci imaging (RNA-FISH) in patient-derived LCLs; type: cell-based, human; conditions: 100 nM
Method: Imaging RNA Foci in LCLs. RNA foci containing r(G4C2)^exp were imaged using RNA fluorescence in situ hybridization (FISH) as previously described (13). Briefly, ALS patient-derived LCLs were treated with compound or ASO as described in “Measuring poly(GP) Levels by Electrochemiluminescence”. The cells were harvested, pelleted, and washed with 1×PBS. LCLs were then fixed in 2% paraformaldehyde in 1×PBS for 15 min at room temperature and then washed three times with 1×PBS. The fixed cells were then centrifuged, washed twice with 1×PBS, and seeded into poly lysine coated, glass bottom 96-well plates (˜5×10^5 cells/well). To ensure the cells adhered to the plate, they were incubated at 37° C. for >2 h. The cells were then incubated with 70% ethanol overnight at 37° C. The next day, LCLs were washed with 1×PBS for 15 min at room temperature, and then with 1×PBS containing 0.1% (v/v) Triton X-100 for 5 min at room temperature. […] Quantification was performed in triplicate with ˜200 nuclei counted per sample. Average number of foci per nuclei was assessed for each sample and reported. Statistical analysis was measured using an unpaired t-test with Welch's correction.

r(G4C2)exp = experiment: ASO-Bind-Map target profiling in patient-derived LCLs; type: cell-based, human; conditions: ASO 100 nM
Method: Target profiling by ASO-Bind-Map. LCLs were first treated with compounds overnight at 37° C. and then transfected with G4C2-ASO (100 nM; Table 3). The cells were then incubated for another 24 h at 37° C. followed by extraction of total RNA as described above. The levels of various fragments were then measured by RT-qPCR as described above.

[2] = test system: r(G4C2)exp-containing intron 1; experiment: C9orf72 intron 1 RT-qPCR in c9ALS iPSC-derived spinal neurons; type: cell-based, human
Method: iPSCs were differentiated into spinal neuron cells using a previously the previously described direct induced motor neuron (diMNs) differentiation protocol (58) with modifications. Briefly, iPSCs were plated into Matrigel-coated 100 mm dishes (30-40% confluence). Neuroepithelial induction was performed by replacing the iPSC maintenance medium with Stage 1 medium [47.5% IMDM (Iscove's Modified Dulbecco's Medium) medium, 47.5% F12 medium, 1% NEAA (Non-Essential Amino Acid) (Life Technologies), 2% B27 (Invitrogen), 1% N2, 1% PSA (Penicillin-Streptomycin-Amphotericin), 0.2 μM LDN193189 (Stemgent), 10 μM SB431542 ([…] Technologies) and 3 μM CHIR99021 (Sigma-Aldrich)]. After daily medium changes for 6 days, cells were detached with Accutase and seeded into 6-well plates (1.5×10^6 cells/well) in 3 mL Stage 2 medium. Cells were maintained in Stage 2 medium [Stage 1 medium supplemented with 0.1 μM All-trans RA (Sigma-Aldrich) and 1 μM *SAG (Cayman Chemicals)], with daily changes, through Day 11. […]
Measuring Levels of C9orf72 and C9orf72 Variants by RT-qPCR. […] RNA was extracted as described above and the expression of C9orf72 variants was determined by RT-qPCR. […] RNA was extracted as described above and the expression of C9orf72 variants was determined by RT-qPCR.

Cc1c2ccncc2c(C)c2c1[nH]c1ccc(OCCOCCOCCNCCOCCOCCOc3ccc4[nH]c5c(C)c6ccncc6c(C)c5c4c3)cc12 [Compound 3]
C-Chem-CLIP, RNA pulled down by 4 (r(G4C2)8): reduced the percentage of RNA pulled down in a dose dependent fashion
reduction of number of r(G4C2)exp-containing nuclear foci [1]: ~60%
intron 1 levels of C9orf72 mRNA in competition with G4C2-ASO (r(G4C2)exp): dose-dependent increase

CCOC(=O)C1=C(Nc2ccccc2)S/C(=C\c2ccc(OCCOCCOCCOCCNC(=O)CCC(=O)N(CCOCCOCCOc3ccc4[nH]c5c(C)c6ccncc6c(C)c5c4c3)CCOCCOCCOc3ccc4[nH]c5c(C)c6ccncc6c(C)c5c4c3)c(O)c2)C1=O [Compound 7]
reduction of r(G4C2)exp-containing intron 1 abundance ([2]; 50 nM): 45±11%
reduction of r(G4C2)exp-containing intron 1 abundance ([2]; 500 nM): 64±10%
